Active and inactive are the calls of the source. Positions of bridges follow the written chain, without caps; N, C: chain ends. Residues, ends and D or L forms follow the SMILES beside them.
Columns and labels:
[1] = test system: Mus musculus; experiment: Anti-inflammatory activity in L-arginine-induced acute pancreatitis in BALB/c mouse model assessed as reduction in serum amylase at 50 mg/kg preincubated with compound followed by L-Arg induction for 1 hr and measured after 24 hrs by automatic analyzer; type: functional, organism-based; details: time 25.0 hrs
[2] = test system: Mus musculus; experiment: Anti-inflammatory activity in L-arginine-induced acute pancreatitis in BALB/c mouse model assessed as reduction in IL-6 level at 50 mg/kg preincubated with compound followed by L-Arg induction for 1 hr and measured after 24 hrs by ELISA method; type: functional, organism-based; details: time 25.0 hrs
[3] = test system: Mus musculus; experiment: Anti-inflammatory activity in L-arginine-induced acute pancreatitis in BALB/c mouse model assessed as inhibition of trypsin activity at 50 mg/kg preincubated with compound followed by L-Arg induction for 1 hr and measured after 24 hrs; type: functional, organism-based; details: time 25.0 hrs
[4] = test system: Mus musculus; experiment: Antioxidant activity in L-arginine-induced acute pancreatitis in BALB/c mouse model assessed as decrease in ROS accumulation at 1.25 to 5 mg/kg by DCFH-DA staining method; type: functional, organism-based; details: dose 1.25-5 mg/kg
[5] = test system: Mus musculus; experiment: Anti-inflammatory activity in L-arginine-induced acute pancreatitis in BALB/c mouse model assessed as inhibition of trypsin activity at 1.25 to 5 mg/kg preincubated with compound followed by L-Arg induction for 1 hr and measured after 24 hrs; type: functional, organism-based; details: dose 1.25-5 mg/kg, time 25.0 hrs
[6] = test system: Mus musculus; experiment: Antithrombotic activity in L-arginine-induced acute pancreatitis in BALB/c mouse model assessed as reduction in thrombosis by measuring fluorescence intensity at 5 mg/kg preincubated with compound followed by L-Arg induction for 1 hr and measured after 24 hrs by imaging based analysis (reference value: 24497.7); type: functional; details: time 25 hrs
[7] = test system: Mus musculus; experiment: Anti-inflammatory activity in L-arginine-induced acute pancreatitis in BALB/c mouse model assessed as reduction in hemorrhage in pancreas at 1.25 to 5 mg/kg preincubated with compound followed by L-Arg induction for 1 hr and measured after 24 hrs by H and E staining based analysis; type: functional, organism-based; details: dose 1.25-5 mg/kg, time 25.0 hrs
[8] = test system: Mus musculus; experiment: Anti-inflammatory activity in L-arginine-induced acute pancreatitis in BALB/c mouse model assessed as reduction in necrosis in pancreas at 1.25 to 5 mg/kg preincubated with compound followed by L-Arg induction for 1 hr and measured after 24 hrs by H and E staining based analysis; type: functional, organism-based; details: dose 1.25-5 mg/kg, time 25.0 hrs
[9] = target: T1, Trypsin (Homo sapiens, UniProt P07477+P07478+P35030); experiment: Inhibition of trypsin (unknown origin) assessed as inhibition of casein hydrolysis using S2238 as chromogenic substrate preincubated for 5 mins followed by substrate addition and measured after 11 mins by absorbance based analysis; type: protein assay; details: dose 0.3125-10 µM, time 16.0 min
[10] = test system: Mus musculus; experiment: Antithrombotic activity FeCl3-induced thrombosis in BALB/c mouse model assessed as carotid artery blood flow time at 5 mg/kg preincubated with compound followed by FeCl3 treatment for 1 hr and measured upto 12 mins by laser perfusion imaging method; type: functional; details: time 72 min, 1.2 h
[11] = test system: Mus musculus; experiment: Anti-inflammatory activity in L-arginine-induced acute pancreatitis in BALB/c mouse model assessed as decrease in platelet to lymphocyte ratio at 5 mg/kg preincubated with compound followed by L-Arg induction for 1 hr and measured after 24 hrs; type: functional, organism-based; details: time 25.0 hrs
[12] = test system: Mus musculus; experiment: Anti-inflammatory activity in L-arginine-induced acute pancreatitis in BALB/c mouse model assessed as improvement in neutrophil level in spleen at 1.25 to 5 mg/kg preincubated with compound followed by L-Arg induction for 1 hr and measured after 24 hrs by flow cytometry analysis; type: functional, organism-based; details: dose 1.25-5 mg/kg, time 25.0 hrs
[13] = Antioxidant activity assessed as ABTS radical scavenging activity at 40 uM measured at 10 min by microplate reader analysis relative to control; type: functional
[14] = species: Mus musculus; experiment: Anti-inflammatory activity in L-arginine-induced acute pancreatitis in BALB/c mouse model assessed as reduction in serum amylase preincubated with compound followed by L-Arg induction for 1 hr and measured after 24 hrs by automatic analyzer; type: functional, organism-based; details: dose 1.25-5 mg/kg, time 25.0 hrs
[15] = species: Mus musculus; experiment: Antithrombotic activity in L-arginine-induced acute pancreatitis in BALB/c mouse model assessed as inhibition of thrombin induced platelet aggregation preincubated with compound followed by L-Arg induction for 1 hr and measured after 24 hrs by fluorescence based analysis; type: functional, organism-based; details: dose 12.5-50 µM, time 25.0 hrs
[16] = Antioxidant activity assessed as ferric reducing capacity at 40 uM measured at 10 min by FRAP assay (reference value: 20.87 %); type: functional; parameters: scale not given: the % may be the effect or the level left
[17] = test system: Mus musculus; experiment: Antioxidant activity in L-arginine-induced acute pancreatitis in BALB/c mouse model assessed as reversal of GSH level at 1.25 to 5 mg/kg by DCFH-DA staining method; type: functional, organism-based; details: dose 1.25-5 mg/kg
[18] = test system: Mus musculus; experiment: Anti-inflammatory activity in L-arginine-induced acute pancreatitis in BALB/c mouse model assessed as decrease in neutrophil to lymphocyte ratio at 5 mg/kg preincubated with compound followed by L-Arg induction for 1 hr and measured after 24 hrs; type: functional, organism-based; details: time 25.0 hrs
[19] = target: T1, Trypsin; experiment: Binding affinity to trypsin (unknown origin) assessed as inhibition constant by Lineweaver-Burk plot analysis; type: protein assay
[20] = target: T1, Trypsin; experiment: Binding affinity to trypsin (unknown origin) assessed as dissociation constant by surface plasmon resonance imaging method; type: protein assay
[21] = test system: Mus musculus; experiment: Antioxidant activity in L-arginine-induced acute pancreatitis in BALB/c mouse model assessed as decrease in MDA level at 1.25 to 5 mg/kg by DCFH-DA staining method; type: functional, organism-based; details: dose 1.25-5 mg/kg
[22] = species: Mus musculus; experiment: Anti-inflammatory activity in L-arginine-induced acute pancreatitis in BALB/c mouse model assessed as inhibition of increase in myeloperoxidase activity at preincubated with compound followed by L-Arg induction for 1 hr and measured after 24 hrs; type: functional, organism-based; details: dose 1.25-5 mg/kg, time 25.0 hrs
[23] = test system: Mus musculus; experiment: Antioxidant activity in L-arginine-induced acute pancreatitis in BALB/c mouse model assessed as reversal of SOD activity at 1.25 to 5 mg/kg by DCFH-DA staining method; type: functional, organism-based; details: dose 1.25-5 mg/kg
[24] = test system: Mus musculus; experiment: Anti-inflammatory activity in L-arginine-induced acute pancreatitis in BALB/c mouse model assessed as reduction in interstitial edema in pancreas at 1.25 to 5 mg/kg preincubated with compound followed by L-Arg induction for 1 hr and measured after 24 hrs by H and E staining based analysis; type: functional, organism-based; details: dose 1.25-5 mg/kg, time 25.0 hrs
[25] = test system: Mus musculus; experiment: Anti-inflammatory activity in L-arginine-induced acute pancreatitis in BALB/c mouse model assessed as reduction in neutrophil infiltration in pancreas at 1.25 to 5 mg/kg preincubated with compound followed by L-Arg induction for 1 hr and measured after 24 hrs by H and E staining based analysis; type: functional, organism-based; details: dose 1.25-5 mg/kg, time 25.0 hrs
[26] = species: Mus musculus; experiment: Antithrombotic activity in L-arginine-induced acute pancreatitis in BALB/c mouse model assessed as prolongation of plasma recalcification time preincubated with compound followed by L-Arg induction for 1 hr and measured after 24 hrs by fluorescence based analysis; type: functional, organism-based; details: dose 0.1-50 µM, time 25.0 hrs
[27] = test system: Mus musculus; experiment: Anti-inflammatory activity in L-arginine-induced acute pancreatitis in BALB/c mouse model assessed as reduction in acinar cell necrosis in pancreas at 1.25 to 5 mg/kg preincubated with compound followed by L-Arg induction for 1 hr and measured after 24 hrs by H and E staining based analysis; type: functional, organism-based; details: dose 1.25-5 mg/kg, time 25.0 hrs
[28] = species: Mus musculus; experiment: Anti-inflammatory activity in L-arginine-induced acute pancreatitis in BALB/c mouse model assessed as reduction in IL-6 level preincubated with compound followed by L-Arg induction for 1 hr and measured after 24 hrs by ELISA method; type: functional, organism-based; details: dose 1.25-5 mg/kg, time 25.0 hrs
[29] = Antioxidant activity assessed as DPPH radical scavenging activity at 40 uM measured at 10 min by microplate reader analysis relative to control; type: functional

CC(=O)N[C@@H](CS)C(=O)O
active: Activity [1] | Activity [2] | Activity [3]

CC(C)C[C@H](NC(=O)[C@@H]1CSSC[C@H](NC(=O)CNC(=O)[C@H](CO)NC(=O)[C@H](CC(C)C)NC(=O)[C@@H](N)CO)C(=O)N[C@@H](Cc2c[nH]c3ccccc23)C(=O)N[C@@H]([C@@H](C)O)C(=O)N[C@@H](CCCCN)C(=O)N[C@@H](CO)C(=O)N[C@@H](Cc2ccccc2)C(=O)N2CCC[C@H]2C(=O)N[C@@H](CCCNC(=N)N)C(=O)N[C@@H](CCCCN)C(=O)N2CCC[C@H]2C(=O)N1)C(=O)N[C@@H](CCCNC(=N)N)C(=O)O (H-SLSGCWTKSFPRKPCLR-OH; disulfide 5-15)
active: Activity [4] | Activity [5] | Activity [7] | Activity [8] | inhibition [9] Dose-Dependent Effect | Activity [11] | Activity [12] | Activity [14] Dose-Dependent Effect | Activity [15] Dose-Dependent Effect | Activity [17] | Activity [18] | Activity [21] | Activity [22] Dose-Dependent Effect | Activity [23] | Activity [24] | Activity [25] | Activity [26] Dose-Dependent Effect | Activity [27] | Activity [28] Dose-Dependent Effect
33.1%: Activity [29]
14936.4: Flu intensity [6]
1.93 µM: Kd [20]
2.66 µM: Ki [19]
12.46 min: Time [10]
58.8%: Activity [13]
66.5%: Activity [16]

Reference: ChEMBL document CHEMBL5365436, “Novel Amphibian Bowman-Birk-Like Inhibitor with Antioxidant and Anticoagulant Effects Ameliorates Pancreatitis Symptoms in Mice” (J Med Chem, 2023)
